Experimental data: patent publication US10525110B2, “Methods for inducing partial apoptosis using caspase polypeptides” (Bellicum Pharmaceuticals, Inc., priority 2013, dated 2020)

Columns and labels:
[1] = system: EBV-specific and CMV-specific T cells; experiment: Pentamer analysis of virus-specific T cells after AP20187 treatment of allostimulated cells; format: cell-based, human; conditions: 10 nM after 4 days reactivation with allogeneic PBMC
[2] = system: iCasp9-ΔCD19-transduced MSCs; experiment: In vivo killing of iCasp9-ΔCD19-transduced MSCs in SCID mice (luminescence, qPCR)
[3] = system: T cells transduced with these inducible death molecules; conditions: inducible Fas or FADD DED; cited from earlier work
[4] = system: iCasp9M.IRES.IL-12-transduced cells; experiment: IL-12 ELISA of supernatant of iCasp9M.I.IL-12-transduced EBV-CTLs; format: cell-based, human; conditions: 10 nM CID; detection limit 8 pg/mL
Method: The concentration of interferon-γ (IFN-γ), IL-2, IL-4, IL-5, IL-10, and tumor necrosis factor-α (TNFα) in CTL culture supernatants was measured using the Human Th1/Th2 cytokine cytometric Bead Array (BD Pharmingen) and the concentration of IL-12 in the culture supernatants was measured by enzyme-linked immunosorbent assay (ELISA; R&D Systems, Minneapolis, Minn.) according to the instructions of the manufacturer.
To determine whether iCasp9M could effectively destroy cells genetically modified to express an active transgene product, the ability of iCasp9M to eliminate EBV-CTLs stably expressing IL-12 was measured. While IL-12 was undetectable in the supernatant of nontransduced and iCasp9M.IRES.GFP-transduced CTLs, the supernatant of iCasp9M.IRES.IL-12-transduced cells contained 324 pg/mL to 762 pg/mL IL-12. After administration of 10 nM CID, however, the IL-12 in the supernatant fell to undetectable levels (<8 pg/mL). Thus, even without prior sorting for high transgene expressing cells, activation of iCasp9M is sufficient to completely eliminate all T cells producing biologically relevant levels of IL-12 (FIG. 6). The function of iCasp9M when coexpressed with IL-12 is graphically represented by bar graphs in FIG. 6. […] Three days after a second antigenic stimulation, the levels of IL-12 in the culture supernatant were measured by IL-12 ELISA (detection limit of this assay is 8 pg/mL). […]

[5] = system: F-Casp9M.I.GFPhigh-transduced T cells; experiment: Annexin-V/7-AAD staining of GFPhigh-selected iCasp9M-transduced T cells after CID; format: cell-based, human
[6] = representative example of 3 separate experiments

CC[C@H](C(=O)N1CCCC[C@H]1C(=O)O[C@H](CCc1ccc(OC)c(OC)c1)c1cccc(OCC(=O)NCC(CNC(=O)COc2cccc([C@@H](CCc3ccc(OC)c(OC)c3)OC(=O)[C@@H]3CCCCN3C(=O)[C@@H](CC)c3cc(OC)c(OC)c(OC)c3)c2)CN(C)C)c1)c1cc(OC)c(OC)c(OC)c1 [AP20187]
effect on virus-specific T cells [1]: spares (and thereby enriches) viral reactive subpopulations | surviving iCasp9-positive cells, % of the original population ([2]; after one week, qPCR): 0.7% | effect on cells negative for iCasp9 ([2]; luminescence): not affected | transduced T cells undergoing apoptosis after administration of CID [3]: Up to 90% | IL-12 in the supernatant after CID [4]: < 8 pg/mL | time to apoptotic characteristics (cell shrinkage and fragmentation) after CID administration ([5]; GFPhigh-selected cells): ≤ 14 h | apoptotic phenotype (annexin V+, 7-AAD−) [5, 6]: 64% | necrotic phenotype (annexin V+, 7-AAD+) [5, 6]: 32%
